Measured values from US10357036B2, “Compounds for controlling arthropods” (priority 2015, dated 2019).
Read-outs that look alike come from different tables or passages of the source.

How the values were obtained:
Ctenocephalides felis [1] = assay: Ctenocephalides felis in vitro contact test with adult cat fleas; format: in vivo; conditions: application rate 5 μg/cm^2 (=500 g/ha); after 48 h; dead or moribund fleas
Description: For the coating of the test tubes, 9 mg of active ingredient are first dissolved in 1 ml of acetone p.a. and then diluted to the desired concentration with acetone p.a. 250 μl of the solution are distributed homogeneously on the inner walls and the base of a 25 ml glass tube by turning and rocking on an orbital shaker (rocking rotation at 30 rpm for 2 h). With 900 ppm of active ingredient solution and internal surface area 44.7 cm^2, given homogeneous distribution, an area-based dose of 5 μg/cm^2 is achieved.
After the solvent has evaporated off, the tubes are populated with 5-10 adult cat fleas (Ctenocephalides felis), sealed with a perforated plastic lid and incubated in a horizontal position at room temperature and ambient humidity. After 48 h, efficacy is determined. To this end, the tubes are stood upright and the fleas are knocked to the base of the tube. Fleas which remain motionless at the base or move in an uncoordinated manner are considered to be dead or moribund.
100% efficacy means that all the fleas were dead or moribund. 0% efficacy means that no fleas were harmed.

Rhipicephalus sanguineus = Rhipicephalus sanguineus in vitro contact test with adult brown dog ticks; format: in vivo; conditions: after 48 h
In short: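 Adult Rhipicephalus sanguineus (5-10 per tube) held in glass tubes coated with compound from acetone solution, 900 ppm giving 5 μg/cm^2, in the dark at room temperature. After 48 h ticks put on a 45-50° C hotplate up to 5 min; motionless or uncoordinated ticks scored dead/moribund as % efficacy.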

[2] = test system: cattle ticks (Boophilus microplus) Parkhurst strain, SP-resistant; assay: Boophilus microplus dip test; format: in vivo; conditions: 100 ppm; assessed after 7 days
Description: • Test animals: cattle ticks (Boophilus microplus) Parkhurst strain, SP-resistant • Solvent: dimethyl sulfoxide
10 mg of active ingredient are dissolved in 0.5 ml of dimethyl sulfoxide. To produce a suitable formulation, the active ingredient solution is diluted with water to the concentration desired in each case.
This active ingredient formulation is pipetted into tubes. 8-10 engorged adult female cattle ticks (Boophilus microplus) are transferred into a further tube with holes. The tube is immersed into the active ingredient formulation, and all the ticks are completely wetted. After the liquid has run out, the ticks are transferred on filter discs into plastic dishes and stored in a climate-controlled room.
Efficacy is assessed after 7 days by laying of fertile eggs. Eggs which are not visibly fertile are stored in a climate-controlled cabinet until the larvae hatch after about 42 days. An efficacy of 100% means that none of the ticks has laid any fertile eggs; 0% means that all the eggs are fertile.

Boophilus microplus = Boophilus microplus injection test; format: in vivo; conditions: 20 μg/animal; assessed after 7 days
Description: (§1) • Solvent: dimethyl sulfoxide
1 μl of the active ingredient solution is injected into the abdomen of 5 engorged adult female cattle ticks (Boophilus microplus). The animals are transferred into dishes and kept in a climate-controlled room.

Ctenocephalides felis [3] = assay: Ctenocephalides felis oral test; format: in vivo; conditions: 100 ppm in citrated cattle blood; after 2 days
Musca domestica = Musca domestica test; format: in vivo; conditions: 100 ppm; adult houseflies; after 2 days
Description: as §1
To produce a suitable active ingredient formulation, 10 mg of active ingredient are mixed with 0.5 ml of dimethyl sulfoxide, and the concentrate is diluted with water to the desired concentration.
Vessels containing a sponge treated with sugar solution and the active ingredient formulation of the desired concentration are populated with 10 adult houseflies (Musca domestica).

Myzus persicae = Myzus persicae spray test (Chinese cabbage leaf discs); format: in vivo; conditions: 100 g/ha; after 6 days
Description: (§2) After 6 days, the efficacy in % is determined.

Spodoptera frugiperda = Spodoptera frugiperda spray test; format: in vivo; conditions: 100 g/ha, after 7 days
Tetranychus urticae = Tetranychus urticae spray test, OP-resistant (bean leaf discs); format: in vivo; conditions: 100 g/ha; after 6 days
Description: as §2

Phaedon cochleariae = Phaedon cochleariae spray test; conditions: for efficacy: 100 g/ha, after 7 days; for pest or weed control at 100 g/ha: Phaedon cochleariae, 168 h, read-out: efficacy
[4] = application rate 5 μg/cm^2 (=500 g/ha), dead or moribund ticks
[5] = reversed-phase C18 HPLC column, logP, HPLC, C18, acetonitrile/water with formic acid (note a)

SMILES	efficacy (Ctenocephalides felis [1]) [%]	efficacy (Rhipicephalus sanguineus; [4]) [%]	efficacy (laying of fertile eggs) [2] [%]	efficacy (laying of fertile eggs) (Boophilus microplus) [%]	efficacy (rate of extermination) (Ctenocephalides felis [3]) [%]	efficacy (rate of extermination) (Musca domestica) [%]	efficacy (Myzus persicae) [%]	efficacy (Spodoptera frugiperda) [%]	efficacy (Tetranychus urticae) [%]	efficacy (Phaedon cochleariae) [%]	pest or weed control at 100 g/ha (Spodoptera frugiperda; Spodoptera frugiperda, 168 h, read-out: efficacy) [%]	pest or weed control at 100 g/ha (Phaedon cochleariae) [%]	chromatographic logP [5]	efficacy (Rhipicephalus sanguineus; application rate 1 μg/cm^2 (=100 g/ha)) [%]	chromatographic logP (reversed-phase C18 HPLC column, logP^a, HPLC-MS method a))
CC(=O)NCc1cc(-c2cnn(-c3c(Cl)cc(C(F)(C(F)(F)F)C(F)(F)F)cc3C(F)(F)F)c2)ccc1C [Ia-79]	100	100	100	100	100	100	90	100	100						
CCC(=O)NCc1cc(-c2cnn(-c3c(C)cc(C(F)(C(F)(F)F)C(F)(F)F)cc3Cl)c2)ccc1F [Ia-66]	100	100	95	100	100	100	70	100	100	100					
CC(=O)NCc1cc(-c2cnn(-c3c(C)cc(C(F)(C(F)(F)F)C(F)(F)F)cc3Cl)c2)ccc1Cl [Ia-84]			100	100	100	100	90	100	100	100					
CC(=O)NCc1cc(-c2cnn(-c3c(Cl)cc(C(F)(C(F)(F)F)C(F)(F)F)cc3C(F)F)c2)cnc1Cl [Ia-145]			100	100	100	100	90	100	100	100					
CCC(=O)NCc1cc(-c2cnn(-c3c(Cl)cc(C(F)(C(F)(F)F)C(F)(F)F)cc3C(F)(F)F)c2)ccc1F [Ia-83]	100	100	80	100	100	100		100	90	100					
CCS(=O)(=O)NCc1cc(-c2cnn(-c3c(Cl)cc(C(F)(C(F)(F)F)C(F)(F)F)cc3Cl)c2)ccc1Cl [Ic-02, N-(2-chloro-5-{1-[2,6-dichloro-4-(1,1,1,2,3,3,3-heptafluoropropan-2-yl)phenyl]-1H-pyrazol-4-yl}benzyl)ethanesulfonamide]											100	100	4.65		
CCC(=O)NCc1cc(-c2cnn(-c3c(Cl)cc(C(F)(C(F)(F)F)C(F)(F)F)cc3C(F)F)c2)ccc1F [Ia-23]	100	100	100	100	100	100	90	100	100	100					
CCC(=O)NCc1cc(-c2cnn(-c3c(C)cc(C(F)(C(F)(F)F)C(F)(F)F)cc3C)c2)ccc1Cl [Ia-93]	100	100	95	100	100	100		100	100	100					
CC(=O)NCc1c(F)ccc(-c2cnn(-c3c(Cl)cc(C(F)(C(F)(F)F)C(F)(F)F)cc3C(F)F)c2)c1F [Ia-142]	100	80	80	100	100	100	90	100	100	100					
CC(=O)NCc1cc(-c2cnn(-c3c(Cl)cc(C(F)(C(F)(F)F)C(F)(F)F)cc3Br)c2)ccc1Cl [Ia-91]			80	100	100	100		100	100	100					
CC(=O)NCc1cc(-c2cnn(-c3c(Cl)cc(C(F)(C(F)(F)F)C(F)(F)F)cc3C#N)c2)ccc1C [Ia-96]			90	100	100			100	100					100	
CC(=O)NCc1cc(-c2cnn(-c3c(Cl)cc(C(F)(C(F)(F)F)C(F)(F)F)cc3Cl)c2)ccc1C [Ia-90]	100	100	100	100	100	100	90	100	100	100					
CCC(=O)NCc1cc(-c2cnn(-c3c(Cl)cc(C(F)(C(F)(F)F)C(F)(F)F)cc3[S+](C)[O-])c2)ccc1F (centres unmarked) [Ia-45, N-(5-{1-[2-chloro-4-(1,1,1,2,3,3,3-heptafluoropropan-2-yl)-6-(methylsulfinyl)phenyl]-1H-pyrazol-4-yl}-2-fluorobenzyl)propanamide]												100	3.52		3.52
CC(=O)NCc1cc(-c2cnn(-c3c(C)cc(C(F)(C(F)(F)F)C(F)(F)F)cc3Cl)c2)ccc1C [Ia-75]	100	100	100	100	100	100		100	100	100					
CC(=O)NCc1cc(-c2cnn(-c3c(C)cc(C(F)(C(F)(F)F)C(F)(F)F)cc3Cl)c2)ccc1F [Ia-65]	100	100	100	100	100	100	90	100	100	100					
CCC(=O)NCc1cc(-c2cnn(-c3c(Cl)cc(C(F)(C(F)(F)F)C(F)(F)F)cc3C(F)F)c2)ccc1Cl [Ia-115]	100	100	100	100	100	100		100	100	100					
CC(=O)NCc1cc(-c2cnn(-c3c(Cl)cc(C(F)(C(F)(F)F)C(F)(F)F)cc3C(F)F)c2)ccc1Cl [Ia-106]			100	100	100	100		100	100	100					
